From the supplement of paper PMC11208160

Experiment: recombinant barcode read abundance after kanamycin selection (control-corrected) (log10(CPM+1)); higher = more efficient recombination; sequences stand for … in AGTGCAGAGAAAATCGGCCAGTTTTCTCTGCCTGCAGTCCGCATGCCGT…AGATTTATGCAGCGGACTGCCTTTCTCCCAAAGTGATAAACCGGACAGTATCATGGACCGGTTTTCCCGGTAATCCGTATTTGCAAGGTTGGTTTCACT; site = the 11-nt target
Outline: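 IS621 bridge RNA target-binding loops were paired with targets in a pooled library tested in E. coli. After co-electroporation with a donor plasmid, cells were plated in two replicates on chloramphenicol/ampicillin LB agar (control) and on chloramphenicol/ampicillin/kanamycin carrying 0.1 mM IPTG. Barcodes at recombinant junctions were counted as counts per million, averaged and control-corrected to give recombination efficiency. Values are log10(CPM+1).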
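Also: IS621 recombinase and bridge RNA in Escherichia coli cells.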

Sequence	recombinant barcode read abundance (log10)
AGGCACTCTTGGGTTCTAACCTGTTGCTG (site AGGCACTCTCA)	2.35
AGGCACTCTTGGGTTCTAACCTGTTGCTG (site TGGCACTCTAA)	0.0921
AGGCATCCTTGGGTTCTAACCTGTTGCCT (site AAGCATCCTAG)	0.32
AGGCATCCTTGGGTTCTAACCTGTTGCCT (site ACGCATCCTAG)	0.202
AGGCATCCTTGGGTTCTAACCTGTTGCCT (site AGGCATCCTAG)	0.147
AGGCATCCTTGGGTTCTAACCTGTTGCCT (site ATGCATCCTAG)	0.0852
AGGCCGCCTTGGGTTCTAACCTGTTGCCG (site AGGCCGCCTCG)	1.17
AGGCCGCCTTGGGTTCTAACCTGTTGCCG (site AGGCCGGCTCG)	0.178
AGGGAGACTTGGGTTCTAACCTGTTGCCA (site AGGAAGACTTG)	1.63
AGGGAGACTTGGGTTCTAACCTGTTGCCA (site AGGCAGACTTG)	0.0382
AGGGAGACTTGGGTTCTAACCTGTTGCCA (site AGGGAGACTTG)	2.49
AGGGAGACTTGGGTTCTAACCTGTTGCCA (site AGGTAGACTTG)	0.0182
AGGGAGACTTGGGTTCTAACCTGTTGCTT (site AGGGAGACTAA)	2.39
AGGGAGACTTGGGTTCTAACCTGTTGCTT (site AGGGATACTAA)	0.25
AGGGCCTCTTGGGTTCTAACCTGTTGCAG (site AGGGCCTCTCT)	2.73
AGGGCCTCTTGGGTTCTAACCTGTTGCAG (site GGGGCCTCTTT)	0.118
AGGGCGCCTTGGGTTCTAACCTGTTGCTT (site AGGGCGCCTAA)	1.18
AGGGCGCCTTGGGTTCTAACCTGTTGCTT (site CATTTAGCTCC)	0.822
AGGGGAGCTTGGGTTCTAACCTGTTGCCT (site AGGGAAGCTAG)	1.12
AGGGGAGCTTGGGTTCTAACCTGTTGCCT (site AGGGCAGCTAG)	0.109
AGGGGAGCTTGGGTTCTAACCTGTTGCCT (site AGGGGAGCTAG)	1.61
AGGGGAGCTTGGGTTCTAACCTGTTGCCT (site AGGGTAGCTAG)	0.315

Sequence	recombinant barcode read abundance (log10)
AGGTAGACTTGGGTTCTAACCTGTTGCTA (site AGGTAGACTTA)	2.44
AGGTAGACTTGGGTTCTAACCTGTTGCTA (site GGGTACACTTA)	0.303
AGGTCACCTTGGGTTCTAACCTGTTGCAT (site AGGTCACCTAA)	0.129
AGGTCACCTTGGGTTCTAACCTGTTGCAT (site AGGTCACCTAC)	0.62
AGGTCACCTTGGGTTCTAACCTGTTGCAT (site AGGTCACCTAG)	0.128
AGGTCACCTTGGGTTCTAACCTGTTGCAT (site AGGTCACCTAT)	2.12
AGGTCCTCTTGGGTTCTAACCTGTTGCTT (site AGGTCCTCTAA)	1.13
AGGTCCTCTTGGGTTCTAACCTGTTGCTT (site AGGTCCTCTAC)	0.715
AGGTCCTCTTGGGTTCTAACCTGTTGCTT (site AGGTCCTCTAG)	0.954
AGGTCCTCTTGGGTTCTAACCTGTTGCTT (site AGGTCCTCTAT)	1.2
AGGTCGGCTTGGGTTCTAACCTGTTGCCT (site AGATCGGCTAG)	0.329
AGGTCGGCTTGGGTTCTAACCTGTTGCCT (site AGGTCGGCTAG)	1.24
AGGTCGTCTTGGGTTCTAACCTGTTGCCT (site AAGTCGTCTAG)	0
AGGTCGTCTTGGGTTCTAACCTGTTGCCT (site ACGTCGTCTAG)	0.146
AGGTCGTCTTGGGTTCTAACCTGTTGCCT (site AGGTCGTCTAG)	1.74
AGGTCGTCTTGGGTTCTAACCTGTTGCCT (site ATGTCGTCTAG)	0.0512
AGGTGCCCTTGGGTTCTAACCTGTTGCCG (site AAGTGCTCTCG)	0.235
AGGTGCCCTTGGGTTCTAACCTGTTGCCG (site AGGTGCCCTCG)	1.15
AGGTGTTCTTGGGTTCTAACCTGTTGCCT (site AGGTGTTCTAG)	0.716
AGGTGTTCTTGGGTTCTAACCTGTTGCCT (site ATGCGTTCTAG)	0.018
AGTAAGACTTGGGTTCTAACCTGTTGCCT (site AGTAAGACTAA)	0.132
AGTAAGACTTGGGTTCTAACCTGTTGCCT (site AGTAAGACTAC)	0.16

Sequence	recombinant barcode read abundance (log10)
AGTAAGACTTGGGTTCTAACCTGTTGCCT (site AGTAAGACTAG)	1.69
AGTAAGACTTGGGTTCTAACCTGTTGCCT (site AGTAAGACTAT)	0.2
AGTAAGACTTGGGTTCTAACCTGTTGCTA (site ACTAAGACTCA)	0.154
AGTAAGACTTGGGTTCTAACCTGTTGCTA (site AGTAAGACTTA)	1.23
AGTAAGTCTTGGGTTCTAACCTGTTGCCT (site AATAAGTCTAG)	0.0805
AGTAAGTCTTGGGTTCTAACCTGTTGCCT (site ACTAAGTCTAG)	0.186
AGTAAGTCTTGGGTTCTAACCTGTTGCCT (site AGTAAGTCTAG)	0.61
AGTAAGTCTTGGGTTCTAACCTGTTGCCT (site ATTAAGTCTAG)	0.0108
AGTAATTCTTGGGTTCTAACCTGTTGCCT (site AGAAATTCTAG)	0.0418
AGTAATTCTTGGGTTCTAACCTGTTGCCT (site AGCAATTCTAG)	0.0536
AGTAATTCTTGGGTTCTAACCTGTTGCCT (site AGGAATTCTAG)	0.0166
AGTAATTCTTGGGTTCTAACCTGTTGCCT (site AGTAATTCTAG)	0.454
AGTACCTCTTGGGTTCTAACCTGTTGCCT (site AATACCTCTAG)	0.192
AGTACCTCTTGGGTTCTAACCTGTTGCCT (site ACTACCTCTAG)	0.283
AGTACCTCTTGGGTTCTAACCTGTTGCCT (site AGTACCTCTAG)	0.941
AGTACCTCTTGGGTTCTAACCTGTTGCCT (site ATTACCTCTAG)	0.0826
AGTAGACCTTGGGTTCTAACCTGTTGCTT (site AGTAGACCTAA)	0.828
AGTAGACCTTGGGTTCTAACCTGTTGCTT (site AGTATACCTCA)	0.0353
AGTATACCTTGGGTTCTAACCTGTTGCTG (site AGTAGACCTAA)	0.178
AGTATACCTTGGGTTCTAACCTGTTGCTG (site AGTATACCTCA)	1.31
AGTCAGACTTGGGTTCTAACCTGTTGCAC (site AGTCAGACTGT)	1.19
AGTCAGACTTGGGTTCTAACCTGTTGCAC (site CTAAGCGCTAG)	0.396

Sequence	recombinant barcode read abundance (log10)
AGTCAGCCTTGGGTTCTAACCTGTTGCCT (site AGTAAGCCTAG)	0.0129
AGTCAGCCTTGGGTTCTAACCTGTTGCCT (site AGTCAGCCTAG)	0.749
AGTCAGCCTTGGGTTCTAACCTGTTGCCT (site AGTGAGCCTAG)	0.318
AGTCAGCCTTGGGTTCTAACCTGTTGCCT (site AGTTAGCCTAG)	0.133
AGTCAGTCTTGGGTTCTAACCTGTTGCCA (site AGTCAGTCTTG)	0.0748
AGTCAGTCTTGGGTTCTAACCTGTTGCCA (site AGTTAGTCTTG)	0.121
AGTCATACTTGGGTTCTAACCTGTTGCAT (site AGTCATACTAT)	0.356
AGTCATACTTGGGTTCTAACCTGTTGCAT (site AGTCATCCTAG)	0.0486
AGTCATACTTGGGTTCTAACCTGTTGCCA (site AGTCATACTTG)	0.355
AGTCATACTTGGGTTCTAACCTGTTGCCA (site GACGTGTCTAC)	0.0524
AGTCCTTCTTGGGTTCTAACCTGTTGCAT (site AGTCCTTCTAT)	0.878
AGTCCTTCTTGGGTTCTAACCTGTTGCAT (site CGTCCTTCTAG)	0.0721
AGTCTACCTTGGGTTCTAACCTGTTGCCT (site AGTCTACCTAG)	1.23
AGTCTACCTTGGGTTCTAACCTGTTGCCT (site CGTCTACCTAG)	0.0985
AGTCTAGCTTGGGTTCTAACCTGTTGCCG (site AGTCTAGCTAG)	0.083
AGTCTAGCTTGGGTTCTAACCTGTTGCCG (site AGTCTAGCTCG)	0.67
AGTCTAGCTTGGGTTCTAACCTGTTGCCG (site AGTCTAGCTGG)	0.0274
AGTCTAGCTTGGGTTCTAACCTGTTGCCG (site AGTCTAGCTTG)	0.641
AGTCTCCCTTGGGTTCTAACCTGTTGCCT (site AGACTCCCTAG)	0.372
AGTCTCCCTTGGGTTCTAACCTGTTGCCT (site AGCCTCCCTAG)	0.0404
